Laboratory results published in patent publication US8710233B2 (Gruenenthal GmbH, priority 2005, dated 2014).
Like-named read-outs stand apart in the source and are kept apart here.

Legend:
[1] = system: capsaicin induced hypothermie; assay: Hypothermie assay in the mouse (capsaicin induced hypothermie); assay type: in vivo; settings: mouse, read-out: inhibition hypothermie (n = 5); for inhibition in vivo at 0.3 mg/kg: 0.3 mg/kg body weight po; for inhibition in vivo at 1 mg/kg: 1 mg/kg body weight po; for inhibition in vivo at 0.1 mg/kg: 0.1 mg/kg body weight po
Description: V. Hypothermie Assay an der Maus
Male NMRI mice (weight 25-35 gram, supplier IFFA CREDO, Bruxelles, Belgium) are used in the hypothermie assay. The animals are kept under standardized conditions: light/darkness interval (6:00 to 18:00 light; 18:00 to 6:00 Uhr darkness), room temperature 19-22° C., relative humidity 35-70%, 15 times per hour change of compartment air, airflow <0.2 m/sec. The animals were fed on a standardized diet (ssniff diet, ssniff Spezialdiäten GmbH, Soest, Germany) and tap water. Water and diet were detracted during the experiment. All animals were used once in the experiment. The animals were allowed to adapt to the experimental conditions for at least 5 days.
The acute application of capsaicin (VR-1 agonist) leads to a decrease of the core body temperature in rat and mice via stimulation of heat sensors. Only compounds which act as specific VR-1-receptor antagonists can antagonize the capsaicin induced hypothermie. In contrast, morphine induced hypothermie is not antagonized by VR-1 antagonists. Thus, this experiment is suitable for the determination of compounds that act as VR1-antagonists via their effect on the core body temperature.
For the determination of the core body temperature a digital thermometer was used (Thermalert TH-5, physitemp, Clifton N.J., USA). The measuring head was inserted into the rectum.
The individual basis value is determined by measuring the body temperature twice in an interval of about half an hour. […] […] The test compound is given 10 min (i.v.) or 15 min (p.o.), respectively, before application of capsaicin. The body temperature is determined 7.5/15 and 30 min after application of capsaicin (i.v.+i.p.) or 15/30/60/90/120 min after application of capsaicin (p.o.+i.p.), respectively. In addition, another group of mice is only given the test compound or a vehicle control.
The measuring points are given as average values±S.E.M. of the absolute values. The antagonistic effect is given in percent of inhibition of capsaicin induced hypothermie.

vanilloid receptor (VR1) = target: T1, vanilloid receptor (VR1) (Homo sapiens, UniProt Q8NER1); assay: FLIPR Ca2+ influx assay on CHO K1 cells transfected with the VR1 gene (pharmacological method II); assay type: cell-based
T1 construct: expressed in transfected cells; host or cells: CHO K1 cells (ECACC), stably transfected
T1 sequence (Q8NER1 whole entry): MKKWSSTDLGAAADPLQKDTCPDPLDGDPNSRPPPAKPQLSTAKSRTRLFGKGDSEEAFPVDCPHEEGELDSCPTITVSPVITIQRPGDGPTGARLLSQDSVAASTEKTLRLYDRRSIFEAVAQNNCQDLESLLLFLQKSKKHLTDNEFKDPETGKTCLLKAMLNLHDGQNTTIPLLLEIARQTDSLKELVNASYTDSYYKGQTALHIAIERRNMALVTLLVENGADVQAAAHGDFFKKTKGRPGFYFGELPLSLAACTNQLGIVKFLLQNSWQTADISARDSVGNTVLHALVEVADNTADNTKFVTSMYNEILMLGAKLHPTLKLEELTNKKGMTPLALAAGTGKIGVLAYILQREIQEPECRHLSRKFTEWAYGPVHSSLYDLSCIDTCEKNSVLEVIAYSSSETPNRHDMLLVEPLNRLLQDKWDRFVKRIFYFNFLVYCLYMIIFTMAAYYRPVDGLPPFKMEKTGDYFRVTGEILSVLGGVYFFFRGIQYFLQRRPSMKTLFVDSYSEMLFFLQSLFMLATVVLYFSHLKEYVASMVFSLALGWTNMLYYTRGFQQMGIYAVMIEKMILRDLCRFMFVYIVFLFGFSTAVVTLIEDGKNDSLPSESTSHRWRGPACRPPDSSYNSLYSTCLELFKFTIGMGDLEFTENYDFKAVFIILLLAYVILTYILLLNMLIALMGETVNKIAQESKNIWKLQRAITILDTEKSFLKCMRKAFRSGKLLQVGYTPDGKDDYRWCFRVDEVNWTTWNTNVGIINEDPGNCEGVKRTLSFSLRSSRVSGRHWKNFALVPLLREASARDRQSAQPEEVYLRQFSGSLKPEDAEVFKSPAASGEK

[2] = target: T2, vanilloid receptor 1 (VR1/TRPV1) of the rat species (Rattus norvegicus, UniProt O35433); assay: FLIPR Ca2+ influx assay on rat dorsal root ganglia cells (pharmacological method I); assay type: cell-based
T2 construct: The spinal column is removed from decapitated rats; from tissue; host or cells: primary cells dissociated from rat dorsal root ganglia
T2 sequence (O35433 whole entry): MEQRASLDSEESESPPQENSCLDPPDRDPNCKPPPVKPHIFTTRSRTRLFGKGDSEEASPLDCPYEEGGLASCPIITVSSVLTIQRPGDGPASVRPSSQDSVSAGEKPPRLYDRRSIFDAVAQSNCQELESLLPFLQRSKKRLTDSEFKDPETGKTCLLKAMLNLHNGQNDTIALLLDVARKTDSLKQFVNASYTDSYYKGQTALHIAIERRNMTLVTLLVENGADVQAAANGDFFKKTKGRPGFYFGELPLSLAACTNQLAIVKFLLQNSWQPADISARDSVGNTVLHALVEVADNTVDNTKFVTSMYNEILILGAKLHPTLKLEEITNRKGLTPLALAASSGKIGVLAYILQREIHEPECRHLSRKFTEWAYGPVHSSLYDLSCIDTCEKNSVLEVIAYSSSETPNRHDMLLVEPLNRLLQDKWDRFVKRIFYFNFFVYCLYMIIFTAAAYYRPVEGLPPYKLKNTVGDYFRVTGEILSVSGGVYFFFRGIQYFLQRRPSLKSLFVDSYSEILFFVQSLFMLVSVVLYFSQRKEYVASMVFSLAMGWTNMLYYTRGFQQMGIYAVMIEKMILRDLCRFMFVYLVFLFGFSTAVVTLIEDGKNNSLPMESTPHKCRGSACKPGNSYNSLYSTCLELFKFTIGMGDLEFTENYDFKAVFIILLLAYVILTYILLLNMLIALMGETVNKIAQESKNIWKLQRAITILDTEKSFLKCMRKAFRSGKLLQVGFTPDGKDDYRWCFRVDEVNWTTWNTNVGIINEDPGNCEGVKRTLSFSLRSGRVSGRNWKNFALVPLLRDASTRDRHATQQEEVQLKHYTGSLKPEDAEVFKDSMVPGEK
How it was run: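 Primary rat dorsal root ganglion cells loaded with 2 μM Fluo-4, Ca2+ influx read on FLIPR as peak fluorescence. Triplicates, at least 3 independent experiments.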

VR1/TRPV1 receptor = VR1/TRPV1 receptor (Homo sapiens, UniProt Q8NER1); assay: IC50 (human) after pH stimulus; assay type: cell-based
Chain of VR1/TRPV1 receptor (Q8NER1 whole entry): as the sequence (Q8NER1 whole entry) above

[3] = table 4, capsaicin, read-out: Ki (human) Cap.
[4] = table 4, capsaicin, read-out: Ki (rat) Cap.
[5] = Ki (rat) Cap., table 4, capsaicin
[6] = Table 2, displacement of capsaicin (100 nM), Cheng-Prusoff, read-out: Ki (human)
[7] = Table 2, displacement of capsaicin (100 nM), Cheng-Prusoff, read-out: Ki (rat)

Compound: CC(C(=O)NCc1ccc(C(F)(F)F)nc1OCc1ccccc1)c1ccc(NS(C)(=O)=O)c(F)c1 (stereo not drawn) [Compound 106]
- inhibition in vivo at 0.3 mg/kg [1]: 21%
- inhibition in vivo at 1 mg/kg [1]: 22%
- inhibition in vivo at 10 mg/kg ([1]; 10 mg/kg body weight po): 84%

Compound: CCCCCCOc1nc(C(F)(F)F)ccc1CNC(=O)[C@H](C)c1ccc(NS(C)(=O)=O)c(F)c1 [Example 94, (R)-2-(3-fluoro-4-methylsulfonamido-phenyl)-N-(2-hexyloxy-6-trifluoromethyl-pyridin-3-ylmethyl)-propionamide]
- inhibition in vivo at 0.3 mg/kg [1]: 0%

Compound: CC(C(=O)NCc1ccc(C(F)(F)F)nc1N1CCC(Nc2ccccc2)CC1)c1ccc(NS(C)(=O)=O)c(F)c1 (stereo not drawn) [Compound 290]
- inhibition in vivo at 0.3 mg/kg [1]: 78%
- inhibition in vivo at 1 mg/kg [1]: 68%

Compound: CC1CCN(c2nc(C(F)(F)Cl)ccc2CNC(=O)C(C)c2ccc(NS(C)(=O)=O)c(F)c2)CC1 (stereo not drawn) [Example 131]
- Ki (vanilloid receptor (VR1); [3]): 0.3 nM
- inhibition in vivo at 0.3 mg/kg [1]: 26%
- Ki [2, 4]: 0.4 nM
- IC50 (VR1/TRPV1 receptor; table 4): 5.9 nM

Compound: CC(C(=O)NCc1ccc(C(F)(F)F)nc1OCc1ccccc1)c1ccc(NS(C)(=O)=O)c(F)c1 (stereo not drawn) [Example 106, N-(2-benzyloxy-6-trifluoromethyl-pyridin-3-ylmethyl)-2-(3-fluoro-4-methylsulfonamido-phenyl)-propionamide]
- Ki (vanilloid receptor (VR1); [3]): 0.5 nM
- inhibition in vivo at 0.1 mg/kg [1]: 24%
- IC50 (VR1/TRPV1 receptor; table 4): 18.6 nM

Compound: CC(C(=O)NCc1ccc(C(F)(F)F)cc1OCc1ccccc1)c1ccc(NS(C)(=O)=O)c(F)c1 (stereo not drawn) [Example 209, N-(2-benzyloxy-4-trifluoromethyl-benzyl)-2-(3-fluoro-4-methylsulfonamido-phenyl)-propionamide]
- Ki (vanilloid receptor (VR1); [3]): 0.9 nM
- inhibition in vivo at 3 mg/kg ([1]; 3 mg/kg body weight po): 46%
- Ki [2, 4]: 0.2 nM
- IC50 (VR1/TRPV1 receptor; table 4): 34.9 nM

Compound: CC(C(=O)NCc1ccc(C(F)(F)F)nc1N1CCCCCC1)c1ccc(NS(C)(=O)=O)c(F)c1 (stereo not drawn) [Example 81, N-(2-azepan-1-yl-6-trifluoromethyl-pyridin-3-ylmethyl)-2-(3-fluoro-4-methylsulfonamido-phenyl)-propionamide]
- inhibition in vivo at 0.3 mg/kg [1]: 21%
- Ki [2, 4]: 2.4 nM

Compound: CCCCCCOc1nc(C(F)(F)F)ccc1CNC(=O)[C@@H](C)c1ccc(NS(C)(=O)=O)c(F)c1 [Example 93, (S)-2-(3-fluoro-4-methylsulfonamido-phenyl)-N-(2-hexyloxy-6-trifluoromethyl-pyridin-3-ylmethyl)-propionamide]
- Ki (vanilloid receptor (VR1); [3]): 0.4 nM
- inhibition in vivo at 0.3 mg/kg [1]: 4%
- Ki [2, 5]: 0.2 nM
- IC50 (VR1/TRPV1 receptor; table 4): 12.3 nM

Compound: CC(C)COc1cc(C(F)(F)F)ccc1CNC(=O)[C@H](C)c1ccc(NS(C)(=O)=O)c(F)c1 [Example 99, (R)-2-(3-fluoro-4-methylsulfonamido-phenyl)-N-(2-isobutoxy-4-trifluoromethyl-benzyl)-propionamide]
- Ki (vanilloid receptor (VR1); [3]): 5.8 nM
- inhibition in vivo at 0.3 mg/kg [1]: 1%
- IC50 (VR1/TRPV1 receptor; table 4): 419 nM

Compound: CC(C(=O)NCc1ccc(C(F)(F)F)nc1OCC1CC1)c1ccc(NS(C)(=O)=O)c(F)c1 (stereo not drawn) [Example 100, N-(2-cyclopropylmethoxy-6-trifluoromethyl-pyridin-3-ylmethyl)-2-(3-fluoro-4-methylsulfonamido-phenyl)-propionamide]
- Ki (vanilloid receptor (VR1); [3]): 1.1 nM
- inhibition in vivo at 0.3 mg/kg [1]: 26%
- Ki [2, 5]: 1.2 nM
- IC50 (VR1/TRPV1 receptor; table 4): 115 nM

Compound: CC(C(=O)NCc1ccc(C(F)(F)F)nc1N1CCC(c2ccccc2)CC1)c1ccc(NS(C)(=O)=O)c(F)c1 (stereo not drawn) [Example 137]
- inhibition in vivo at 0.3 mg/kg [1]: 9%
- Ki [2, 4]: 1.9 nM

Compound: CC(C(=O)NCc1ccc(C(F)(F)F)nc1N1CCC(F)CC1)c1ccc(NS(C)(=O)=O)c(F)c1 (stereo not drawn) [Example 138, 2-(3-fluoro-4-methylsulfonamido-phenyl)-N-(4-fluoro-6′-trifluoromethyl-3,4,5,6-tetrahydro-2H-[1,2′]bipyridinyl-3′-ylmethyl)-propionamide]
- Ki (vanilloid receptor (VR1); [3]): 0.5 nM
- inhibition in vivo at 0.3 mg/kg [1]: 0%
- Ki [2, 4]: 1.2 nM
- IC50 (VR1/TRPV1 receptor; table 4): 19.8 nM

Compound: CC(C(=O)NCc1ccc(C(F)(F)Cl)nc1N1CCCCCC1)c1ccc(NS(C)(=O)=O)c(F)c1 (stereo not drawn) [Example 132, N-[2-azepan-1-yl-6-(chloro-difluoro-methyl)-pyridin-3-ylmethyl]-2-(3-fluoro-4-methylsulfonamido-phenyl)-propionamide]
- inhibition in vivo at 0.3 mg/kg [1]: 0%
- Ki [2, 4]: 0.7 nM
- IC50 (VR1/TRPV1 receptor; table 4): 14.7 nM

Compound: CC(C(=O)NCc1ccc(C(F)(F)F)nc1-n1ccnc1)c1ccc(NS(C)(=O)=O)c(F)c1 (stereo not drawn) [Example 87, 2-(3-fluoro-4-methylsulfonamido-phenyl)-N-((6-(trifluoromethyl)-2-(1H-imidazol-1-yl)pyridin-3-yl)methyl)-propionamide]
- inhibition in vivo at 0.3 mg/kg [1]: 0%
- Ki [2, 4]: 143 nM
- IC50 (VR1/TRPV1 receptor; table 4): 2570 nM

Compound: COc1ccc(-c2nc(C(F)(F)F)ccc2CNC(=O)C(C)c2ccc(NS(C)(=O)=O)c(F)c2)cc1 (stereo not drawn) [Example 151, 2-(3-fluoro-4-methylsulfonamido-phenyl)-N-[2-(4-methoxy-phenyl)-6-trifluoromethyl-pyridin-3-ylmethyl]-propionamide]
- Ki (vanilloid receptor (VR1); [3]): 1 nM
- Ki [2, 4]: 1.4 nM
- IC50 (VR1/TRPV1 receptor; table 4): 92.3 nM

Compound: C[C@H](C(=O)NCc1ccc(C(F)(F)F)cc1N1CCCCC1)c1ccc(NS(C)(=O)=O)c(F)c1 [Example 31, (S)-2-(3-fluoro-4-(methylsulfonamido)phenyl)-N-(2-(piperidin-1-yl)-4-(trifluoromethyl)benzyl)propanamide]
- Ki (vanilloid receptor (VR1); [6]): 0.6 nM
- Ki [2, 7]: 0.5 nM
- IC50 (VR1/TRPV1 receptor; Table 2): 50 nM

Compound: CC(C(=O)NCc1ccc(C(F)(F)F)cc1OC1CCCC1)c1ccc(NS(C)(=O)=O)c(F)c1 (stereo not drawn) [Example 42, N-(2-(cyclopentyloxy)-4-(trifluoromethyl)benzyl)-2-(3-fluoro-4-(methylsulfonamido)phenyl)propanamide]
- Ki (vanilloid receptor (VR1); [3]): 0.6 nM
- Ki [2, 4]: 0.5 nM
- IC50 (VR1/TRPV1 receptor; table 4): 26 nM

Compound: CC(C(=O)NCc1ccc(C(F)(F)F)nc1N1CCN(Cc2ccccc2)CC1)c1ccc(NS(C)(=O)=O)c(F)c1 (stereo not drawn) [Example 73, N-((2-(4-benzylpiperazin-1-yl)-6-(trifluoromethyl)pyridin-3-yl)methyl)-2-(3-fluoro-4-(methylsulfonamido)phenyl)propanamide]
- Ki (vanilloid receptor (VR1); [6]): 8.8 nM
- Ki [2, 7]: 6.6 nM
- IC50 (VR1/TRPV1 receptor; Table 2): 634 nM

Compound: CC(C(=O)NCc1ccc(C(F)(F)F)nc1C=Cc1ccccc1)c1ccc(NS(C)(=O)=O)c(F)c1 (stereo not drawn) [Example 191, 2-(3-fluoro-4-(methylsulfonamido)phenyl)-N-((2-styryl-6-(trifluoromethyl)pyridin-3-yl)methyl)propanamide]
- Ki (vanilloid receptor (VR1); [3]): 2.2 nM
- Ki [2, 4]: 2 nM
- IC50 (VR1/TRPV1 receptor; table 4): 85 nM

Compound: CC(C(=O)NCc1ccc(C(F)(F)F)nc1N1CCC(C(F)(F)F)CC1)c1ccc(NS(C)(=O)=O)c(F)c1 (stereo not drawn) [Example 190, N-(4,6′-bis-trifluoromethyl-3,4,5,6-tetrahydro-2H-[1,2′]bipyridinyl-3′-ylmethyl)-2-(3-fluoro-4-methylsulfonamido-phenyl)-propionamide]
- Ki (vanilloid receptor (VR1); [3]): 0.6 nM
- Ki [2, 4]: 0.4 nM
- IC50 (VR1/TRPV1 receptor; table 4): 31 nM

Compound: CC(C(=O)NCc1ccc(C(F)(F)F)nc1N1CCN(c2ccccc2)CC1)c1ccc(NS(C)(=O)=O)c(F)c1 (stereo not drawn) [Example 109, 2-(3-fluoro-4-methylsulfonamido-phenyl)-N-[2-(4-phenyl-piperazin-1-yl)-6-trifluoromethyl-pyridin-3-ylmethyl]-propionamide]
- Ki (vanilloid receptor (VR1); [3]): 0.7 nM
- Ki [2, 4]: 0.6 nM
- IC50 (VR1/TRPV1 receptor; table 4): 30.7 nM

Compound: CC(C(=O)NCc1ccc(C(F)(F)F)nc1OCC1CCC1)c1ccc(NS(C)(=O)=O)c(F)c1 (stereo not drawn) [Example 101, N-(2-cyclobutylmethoxy-6-trifluoromethyl-pyridin-3-ylmethyl)-2-(3-fluoro-4-methylsulfonamido-phenyl)-propionamide]
- Ki (vanilloid receptor (VR1); [3]): 0.3 nM
- Ki [2, 5]: 1 nM
- IC50 (VR1/TRPV1 receptor; table 4): 40.5 nM

Compound: CC(C(=O)NCc1ccc(C(F)(F)F)nc1N1CCC(Nc2ccccc2)CC1)c1ccc(NS(C)(=O)=O)c(F)c1 (stereo not drawn) [Example 290, 2-(3-fluoro-4-methylsulfonamido-phenyl)-N-(4-phenylamino-6′-trifluoromethyl-3,4,5,6-tetrahydro-2H-[1,2′]bipyridinyl-3′-ylmethyl)-propionamide]
- Ki (vanilloid receptor (VR1); [3]): 4.4 nM
- inhibition in vivo at 0.1 mg/kg [1]: 24%
- IC50 (VR1/TRPV1 receptor; table 4): 480 nM
